Holding throughout (format): cell-based
In assay [1] the test system is BHK-21 cells. The assay can be described thus: Anti-fibrosis activity test: inhibition of BHK-21 cell proliferation (CCK-8). The settings on record: Mesocricetus auratus, BHK-21, 48 h, CCK-8, 48 hours after administration. An outline of the steps:
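Cells plated 2×10^4 cells/mL; 24 h attach; compound dilutions, triplicate, 48 h, 37° C/5% CO2; CCK-8 2 h; A450; IR = (1−Ai/Ao)×100%; IC50 by curve fit.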

Assay [2] concerns cardiac fibroblast RAT-iCell-C002. The assay can be described thus: Anti-fibrosis activity test: inhibition of proliferation of cardiac fibroblast RAT-iCell-C002 (CCK-8). The settings on record: Cardiac fibroblast, 48 h, cardiac fibroblast RAT-iCell-C002, CCK-8, 48 hours. An outline of the steps:
(§1)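 After one day of adherence at 37° C in 5% CO2, cells (seeded at 2×10^4 cells/mL) received the compounds for two days in triplicate. Inhibition of proliferation was quantified with CCK-8 at 450 nm, with IC50 calculated from IR = (1−Ai/Ao)×100%.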

Assay [3] concerns human dermal fibroblasts CCC-ESF-1. The assay can be described thus: Anti-fibrosis activity test: inhibition of proliferation of human dermal fibroblasts CCC-ESF-1 (CCK-8). The settings on record: Fibroblast; human dermal fibroblasts CCC-ESF-1, CCK-8, 48 hours. The essentials: as §1
In assay [4] the test system is human hepatic stellate cells LX-2. The assay can be described thus: Anti-fibrosis activity test: inhibition of proliferation of human hepatic stellate cells LX-2 (CCK-8). The settings on record: Homo sapiens, 48 h, human hepatic stellate cells LX-2, CCK-8, 48 hours. The essentials: as §1
Assay [5] relates to human lung fibroblasts HFL1. The assay can be described thus: Anti-fibrosis activity test: inhibition of proliferation of human lung fibroblasts HFL1 (CCK-8). The following applies: Homo sapiens, HFL1, 48 h, human lung fibroblasts HFL1, CCK-8, 48 hours. An outline of the steps:
as §1

Assay [6] relates to human embryonic lung fibroblast IMR-90. The experiment in a line: Anti-fibrosis activity test: inhibition of proliferation of human embryonic lung fibroblast IMR-90 (CCK-8). The following applies: human embryonic lung fibroblast IMR-90, CCK-8, 48 hours. An outline of the steps: as §1
In assay [7] the test system is NF-κB. The assay can be described thus: Immunological activity test: inhibition of NF-κB activity. The settings on record: initial concentration of 30 μM; a/b isomers given as first/second symbol; read-out: IC50 (μM), inhibitory activity against NF-κB. The essentials: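 IC50 values were derived after initial screening of compounds at 30 μM for NF-κB inhibitory activity, with parthenolide serving as the positive control.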

Assay [8] deals with human fibrosarcoma cells HT-1080. The experiment in a line: Anti-fibrosis activity test: inhibition of proliferation of human fibrosarcoma cells HT-1080 (CCK-8). The settings on record: Homo sapiens, HT-1080, 48 h, human fibrosarcoma cells HT-1080, CCK-8, 48 hours. The essentials: as §1
The test system of assay [9] is mouse macrophages (RAW264.7). The experiment in a line: Lipopolysaccharide-induced NO secretion in macrophages (Griess). The settings on record: Mus musculus, RAW264.7, 24 h, RAW264.7, LPS 1 μg/ml, a/b isomers given as first/second symbol, read-out: IC50 (μM), inhibition of lipopolysaccharide-induced NO secretion in macrophages. The essentials: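 LPS 1 μg/ml, 24 h, RAW264.7 (DMEM/10% FBS); cpds at varied concs. Supernatant NO by Griess, A548; % inhibition vs blank medium.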
(Griess reagent forms a coloured azo dye with nitrite.)

For 15 compounds, IC50 results are on record in US11040028B2, “Penicinotam derivative, preparation method and use thereof” (OCEAN UNIVERSITY OF CHINA, priority 2017, dated 2021).

SMILES strings stand for the structures. Bounds are passed on as bounds.

As usually defined, the IC50 is the concentration needed to halve the response being measured. For the compound `O=C1c2c(nc3cccc(Cl)c3c2O)-c2cccn21` [Compound 464b, 8-chloro-9-hydroxy-10H-pyrrolizino[1,2-b]quinolin-10-one], the IC50 is 0.05 to 5 mM in assay [1]; 0.05 to 5 mM in assay [2]; 0.05 to 5 mM in [3]; 0.05 to 5 mM in assay [4]; less than 0.05 mM in assay [5]; 0.05 to 5 mM in [6]. The values for the IC50 in assay [7], in assay [8] and in assay [9] were 1 to 10 µM, 0.05 to 5 mM and 1 to 10 µM, respectively.

For the compound `O=C1c2c(n(Cc3ccc(F)cc3)c3cccc(F)c3c2=O)-c2cccn21` [Compound 468a, 8-Fluoro-4-(4-fluorobenzyl)-9H-pyrrolizino[1,2-b]quinoline-9,10(4H)-dione], the IC50 is less than 0.05 mM in assay [1]; 0.05 to 5 mM in [2]; 0.05 to 5 mM in [3]; 0.05 to 5 mM in assay [4]; 0.05 to 5 mM in assay [5]; 0.05 to 5 mM in assay [6]. Also, the figures for the IC50 in assay [7], in assay [8] and in assay [9] were 0.1 to 1 µM, 0.05 to 5 mM and 1 to 10 µM, respectively.

`O=C1c2c(nc3cccc(F)c3c2OCc2ccc(F)cc2)-c2cccn21` [Compound 468b, 8-fluoro-9-((4-fluorobenzyl)oxy)-10H-pyrrolizino[1,2-b]quinolin-10-one]: the IC50 in [1], in [2], in assay [3], in assay [4], in assay [5] and in assay [6] was 0.05 to 5 mM each time. For the same compound, the figures for the IC50 in [7], in [8] and in [9] were 1 to 10 µM, 0.05 to 5 mM and 1 to 10 µM, respectively.

In the case of `COc1cccc2[nH]c3c(c(=O)c12)C(=O)n1cccc1-3` [Compound 473a, 8-Methoxy-9H-pyrrolizino[1,2-b]quinoline-9,10(4H)-dione], the half-maximal inhibitory concentration (IC50) was 0.05 to 5 mM in assay [1]; less than 0.05 mM in [2]; 0.05 to 5 mM in assay [3]; 0.05 to 5 mM in assay [4]; 0.05 to 5 mM in assay [5]; 0.05 to 5 mM in assay [6]. In addition, the values for the IC50 in assay [7], in assay [8] and in assay [9] were 1 to 10 µM, 0.05 to 5 mM and 1 to 10 µM, respectively.

Consider `COc1cccc2nc3c(c(O)c12)C(=O)n1cccc1-3` [Compound 473b, 9-hydroxy-8-methoxy-10H-pyrrolizino[1,2-b]quinolin-10-one], for which the IC50 in assay [1], in assay [2], in assay [3], in assay [4], in assay [5] and in assay [6] was 0.05 to 5 mM throughout. The concentration for half-maximal inhibition (IC50) was 1 to 10 µM in assay [7], 0.05 to 5 mM in assay [8] and 1 to 10 µM in [9].

Regarding `N#Cc1cccc2[nH]c3c(c(=O)c12)C(=O)n1cccc1-3` [Compound 476a, 9,10-Dioxo-4,10-dihydro-9H-pyrrolizino[1,2-b]quinoline-8-carbonitrile], the IC50 in [1] is less than 0.05 mM; in [2] it was 0.05 to 5 mM; in [3] it was 0.05 to 5 mM; in assay [4] it was 0.05 to 5 mM; in [5] it was 0.05 to 5 mM; in assay [6], 0.05 to 5 mM. For the same compound, the figures for the IC50 in assay [7], in assay [8] and in [9] were 10 to 50 µM, 0.05 to 5 mM and 1 to 10 µM, respectively.

For `N#Cc1cccc2nc3c(c(O)c12)C(=O)n1cccc1-3` [Compound 476b, 9-hydroxy-10-oxo-10H-pyrrolizino[1,2-b]quinoline-8-carbonitrile], the IC50 in [1], in [2], in [3], in assay [4], in assay [5] and in assay [6] was 0.05 to 5 mM throughout. In addition, the IC50 in assay [7] lay in the range of 10 to 50 µM; in assay [8], 0.05 to 5 mM; in assay [9], 1 to 10 µM.

In the case of `O=C1c2c(n(Cc3ccc(Cl)cc3)c3cccc(Cl)c3c2=O)-c2cccn21` [Compound 477a, 8-Chloro-4-(4-chlorobenzyl)-9H-pyrrolizino[1,2-b]quinoline-9,10(4H)-dione], the IC50 in assay [1], in [2], in assay [3], in assay [4], in assay [5] and in assay [6] was 0.05 to 5 mM each time. Moreover, the IC50 in [7] was in the range of 10 to 50 µM; in [8] it was 0.05 to 5 mM; in [9], 1 to 10 µM.

For the compound `O=C1c2c(nc3cccc(Cl)c3c2OCc2ccc(Cl)cc2)-c2cccn21` [Compound 477b, 8-chloro-9-((4-chlorobenzyl)oxy)-10H-pyrrolizino[1,2-b]quinolin-10-one], the IC50 in assay [1], in [2], in [3], in [4], in assay [5] and in assay [6] was 0.05 to 5 mM in each case. The figures for the IC50 in [7], in [8] and in assay [9] were 10 to 50 µM, 0.05 to 5 mM and 1 to 10 µM, respectively.

For the compound `O=C1c2c(n(Cc3cccc(Cl)c3)c3cccc(Cl)c3c2=O)-c2cccn21` [Compound 478a, 8-Chloro-4-(3-chlorobenzyl)-9H-pyrrolizino[1,2-b]quinoline-9,10(4H)-dione], the IC50 in assay [1], in [2], in [3], in assay [4], in [5] and in assay [6] was 0.05 to 5 mM each time. For the same compound, the IC50 is 10 to 50 µM in assay [7], 0.05 to 5 mM in assay [8] and 0.1 to 1 µM in assay [9].

For the compound `O=C1c2c(nc3cccc(Cl)c3c2OCc2cccc(Cl)c2)-c2cccn21` [Compound 478b, 8-chloro-9-((3-chlorobenzyl)oxy)-10H-pyrrolizino[1,2-b]quinolin-10-one], the IC50 in [1], in assay [2], in assay [3], in assay [4], in [5] and in assay [6] was 0.05 to 5 mM in each case. Further, the IC50 lay in the range of 10 to 50 µM in [7], 0.05 to 5 mM in [8] and 1 to 10 µM in assay [9].

Take `O=C1c2c([nH]c3cccc(C(F)(F)F)c3c2=O)-c2cccn21` [Compound 479a, 8-(Trifluoromethyl)-9H-pyrrolizino[1,2-b]quinoline-9,10(4H)-dione]: the half-maximal inhibitory concentration (IC50) is less than 0.05 mM in [1]; 0.05 to 5 mM in [2]; 0.05 to 5 mM in [3]; 0.05 to 5 mM in assay [4]; 0.05 to 5 mM in [5]; 0.05 to 5 mM in assay [6]. In addition, the IC50 in assay [7] was in the range of 10 to 50 µM; in [8], 0.05 to 5 mM; in assay [9], 10 to 50 µM.

Consider `O=C1c2c(nc3cccc(C(F)(F)F)c3c2O)-c2cccn21` [Compound 479b, 9-hydroxy-8-(trifluoromethyl)-10H-pyrrolizino[1,2-b]quinolin-10-one], for which the IC50 in [1], in assay [2], in assay [3], in [4], in assay [5] and in assay [6] was 0.05 to 5 mM each time. Besides, the IC50 fell in the range of 1 to 10 µM in [7], 0.05 to 5 mM in assay [8] and 1 to 10 µM in assay [9].

For `O=C1c2c([nH]c3cc(F)ccc3c2=O)-c2cccn21` [Compound 488a, 6-Fluoro-9H-pyrrolizino[1,2-b]quinoline-9,10(4H)-dione], the IC50 in assay [1] is 0.05 to 5 mM; in assay [2], 0.05 to 5 mM; in [3], 0.05 to 5 mM; in assay [4], less than 0.05 mM; in [5] it was 0.05 to 5 mM; in assay [6], 0.05 to 5 mM. Further, the half-inhibitory concentration (IC50) in [7] fell in the range of 1 to 10 µM; in assay [8], 0.05 to 5 mM; in assay [9], 10 to 50 µM.

On to `O=C1c2c(nc3cc(F)ccc3c2O)-c2cccn21` [Compound 488b, 6-fluoro-9-hydroxy-10H-pyrrolizino[1,2-b]quinolin-10-one], for which the IC50 in assay [1], in [2], in assay [3], in assay [4], in assay [5] and in [6] was 0.05 to 5 mM each time. For the same compound, the IC50 in assay [7] fell in the range of 10 to 50 µM; in [8], 0.05 to 5 mM; in [9] it was 1 to 10 µM.
